SMILES strings stand for the structures. In brackets after ≈: the same amount, converted by molar mass. A value given as a limit tells only on which side of the number the result lay.

One series has as its target Transporter (Rattus norvegicus, UniProt Q63380). The experiment in a line: biochemical.
The target of series [1] is Sodium-dependent serotonin transporter (Homo sapiens, UniProt P31645).
Series [2] concerns the target Histamine H3 receptor (Rattus norvegicus, UniProt Q9QYN8).
Description: Displacement of [3H]N-R-methylhistamine from rat H3 receptor
Series [3] addresses T1, Histamine H3 receptor (Homo sapiens, UniProt Q9Y5N1). The experiment in a line: biochemical.
Description: Displacement of [3H]N-R-methylhistamine from human H3 receptor isolated from C6 cells
For series [4], the target named is T1, Histamine H3 receptor. The series can be described thus: Antagonist activity at human recombinant histamine H3 receptor expressed in HEK cells assessed as inhibition of RAMH-induced [35S]GTPgammaS binding by liquid scintillation counting. The following applies: HEK293. Format: functional, cell-based. Background: Binding of GTPγS marks nucleotide exchange on a G protein.

Series [5] is described as follows: Plasma protein binding in Sprague-Dawley rat at 1 mg/kg, iv. The following applies: read-out: PPB (converted). Format: ADME, organism-based. On the set-up: dose 1 mg/kg, route intravenous.
Series [6] is described as follows: Cmax in Sprague-Dawley rat at 1 mg/kg, ip. The series is classed as ADME, organism-based. On the set-up: dose 1 mg/kg, route intraperitoneal. The conditions noted are these: in vivo.
Series [7] can be described thus: Volume of distribution in Sprague-Dawley rat at 1 mg/kg, iv. The series is classed as ADME, organism-based. Also on record: dose 1 mg/kg, route intravenous. The conditions noted are these: in vivo.
Series [8] in a line: Tmax in Sprague-Dawley rat at 1 mg/kg, ip. Format: ADME, organism-based. Also on record: dose 1 mg/kg, route intraperitoneal. The following applies: in vivo.
A short description of series [9]: Plasma protein binding in Sprague-Dawley rat assessed as unbound fraction at 1 mg/kg, iv. The series is classed as ADME, organism-based. On the set-up: dose 1 mg/kg, route intravenous.
A short description of series [10]: Plasma concentration in Sprague-Dawley rat osteoarthritis model at 1 mg/kg, ip after 45 mins. The series is classed as ADME, organism-based. On the set-up: dose 1 mg/kg, route intraperitoneal.
Series [11] is described as follows: Half life in Sprague-Dawley rat at 1 mg/kg, iv. The series is classed as ADME, organism-based. On the set-up: dose 1 mg/kg, route intravenous. The following applies: in vivo.
The test system of series [12] is Rattus norvegicus. The experiment in a line: Antiinflammatory activity in Sprague-Dawley rat osteoarthritis model assessed as efficacy at 3 mg/kg, ip after 20 days. The series is classed as functional. The conditions noted are these: route intraperitoneal.
Series [13] can be described thus: Plasma concentration in Sprague-Dawley rat osteoarthritis model at 3 mg/kg, ip after 45 mins. The series is classed as ADME, organism-based. Also on record: dose 3 mg/kg, route intraperitoneal.
In series [14] the test system is Rattus norvegicus. The experiment in a line: Ex vivo receptor occupancy of NET in Sprague-Dawley rat osteoarthritis model at 1 mg/kg, ip. The series is classed as functional. The following applies: route intraperitoneal.
Series [15] in a line: Plasma concentration in Sprague-Dawley rat osteoarthritis model at 10 mg/kg, ip after 45 mins. Format: ADME, organism-based. On the set-up: dose 10 mg/kg, route intraperitoneal.
A short description of series [16]: Clearance in Sprague-Dawley rat at 1 mg/kg, iv. Format: ADME, organism-based. Also on record: dose 1 mg/kg, route intravenous. The conditions noted are these: in vivo.
For series [17], the system named is Rattus norvegicus. The experiment in a line: Ex vivo receptor occupancy of histamine H3 receptor in Sprague-Dawley rat osteoarthritis model at 3 mg/kg, ip. Format: functional. The conditions noted are these: route intraperitoneal.
Series [18] can be described thus: Bioavailability in Sprague-Dawley rat at 1 mg/kg, ip and iv. Format: ADME, organism-based. The conditions noted are these: in vivo.
Series [19] has as its system Rattus norvegicus. The experiment in a line: Antiinflammatory activity in ip dosed Sprague-Dawley rat osteoarthritis model assessed as efficacy measured at 370 nM plasma concentration after 20 days. The series is classed as functional.
The test system of series [20] is Rattus norvegicus. The series can be described thus: Antiinflammatory activity in ip dosed Sprague-Dawley rat osteoarthritis model assessed as efficacy measured after 20 days. Format: functional. The following applies: 480 h.
Series [21] relates to Rattus norvegicus. The series can be described thus: Ex vivo receptor occupancy of histamine H3 receptor in Sprague-Dawley rat osteoarthritis model at 10 mg/kg, ip. The conditions noted are these: route intraperitoneal. The series is classed as functional.
Series [22] deals with Rattus norvegicus. The series can be described thus: Antiinflammatory activity in Sprague-Dawley rat osteoarthritis model assessed as efficacy at 10 mg/kg, ip after 20 days. The series is classed as functional. The following applies: route intraperitoneal.
Series [23] deals with Rattus norvegicus. The experiment in a line: Ex vivo receptor occupancy of NET in Sprague-Dawley rat osteoarthritis model at 3 mg/kg, ip. Format: functional. The conditions noted are these: route intraperitoneal.
In series [24] the test system is Rattus norvegicus. The experiment in a line: Ex vivo receptor occupancy of NET in Sprague-Dawley rat osteoarthritis model at 10 mg/kg, ip. Format: functional. The following applies: route intraperitoneal.
Series [25] concerns Rattus norvegicus. The experiment in a line: Ex vivo receptor occupancy of histamine H3 receptor in Sprague-Dawley rat osteoarthritis model at 1 mg/kg, ip. The series is classed as functional. The conditions noted are these: route intraperitoneal.

Sodium-dependent serotonin transporter, sequence (P31645 whole entry): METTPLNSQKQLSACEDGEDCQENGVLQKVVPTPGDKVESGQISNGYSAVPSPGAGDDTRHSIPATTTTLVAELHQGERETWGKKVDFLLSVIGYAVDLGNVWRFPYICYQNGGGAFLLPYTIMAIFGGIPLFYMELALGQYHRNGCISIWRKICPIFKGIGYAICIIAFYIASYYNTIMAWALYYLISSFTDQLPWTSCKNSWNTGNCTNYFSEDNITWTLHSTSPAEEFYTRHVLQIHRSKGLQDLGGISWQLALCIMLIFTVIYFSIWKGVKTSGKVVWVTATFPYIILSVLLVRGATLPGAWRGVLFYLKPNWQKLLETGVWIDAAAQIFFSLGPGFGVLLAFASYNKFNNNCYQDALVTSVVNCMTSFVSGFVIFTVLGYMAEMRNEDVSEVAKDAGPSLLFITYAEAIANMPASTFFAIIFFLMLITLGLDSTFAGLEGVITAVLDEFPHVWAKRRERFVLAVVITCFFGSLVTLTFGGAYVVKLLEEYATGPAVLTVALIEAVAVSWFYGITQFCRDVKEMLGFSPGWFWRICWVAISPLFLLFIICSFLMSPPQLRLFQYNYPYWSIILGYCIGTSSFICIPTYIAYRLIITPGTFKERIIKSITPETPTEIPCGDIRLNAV
Histamine H3 receptor (Rattus norvegicus, UniProt Q9QYN8), sequence (Q9QYN8 whole entry): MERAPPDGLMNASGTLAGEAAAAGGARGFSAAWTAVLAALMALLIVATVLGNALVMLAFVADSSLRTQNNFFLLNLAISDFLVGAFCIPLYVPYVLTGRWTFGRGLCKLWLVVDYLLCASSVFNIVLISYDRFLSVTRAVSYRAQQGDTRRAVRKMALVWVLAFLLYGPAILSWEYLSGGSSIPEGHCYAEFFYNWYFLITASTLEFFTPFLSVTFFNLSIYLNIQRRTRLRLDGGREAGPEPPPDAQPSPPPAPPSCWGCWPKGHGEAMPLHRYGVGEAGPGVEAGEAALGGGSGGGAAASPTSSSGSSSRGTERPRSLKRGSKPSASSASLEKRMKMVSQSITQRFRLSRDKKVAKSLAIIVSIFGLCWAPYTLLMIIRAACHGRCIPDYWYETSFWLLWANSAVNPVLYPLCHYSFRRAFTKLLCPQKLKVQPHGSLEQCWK
Transporter, sequence (Q63380 whole entry): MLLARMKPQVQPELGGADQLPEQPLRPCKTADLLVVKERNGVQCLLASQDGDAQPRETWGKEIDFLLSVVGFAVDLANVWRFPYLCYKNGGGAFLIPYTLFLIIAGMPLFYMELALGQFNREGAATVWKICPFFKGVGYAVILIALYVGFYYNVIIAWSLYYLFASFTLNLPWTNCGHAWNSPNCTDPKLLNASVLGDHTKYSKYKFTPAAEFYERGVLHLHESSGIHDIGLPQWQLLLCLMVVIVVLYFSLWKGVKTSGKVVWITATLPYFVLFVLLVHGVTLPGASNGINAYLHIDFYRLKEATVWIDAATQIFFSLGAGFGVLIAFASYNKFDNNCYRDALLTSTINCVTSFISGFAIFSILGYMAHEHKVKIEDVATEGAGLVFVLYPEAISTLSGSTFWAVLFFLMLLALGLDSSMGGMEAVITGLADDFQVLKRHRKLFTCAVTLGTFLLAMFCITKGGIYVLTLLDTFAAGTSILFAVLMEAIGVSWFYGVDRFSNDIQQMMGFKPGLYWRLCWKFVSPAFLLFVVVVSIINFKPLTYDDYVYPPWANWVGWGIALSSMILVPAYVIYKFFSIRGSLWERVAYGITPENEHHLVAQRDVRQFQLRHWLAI
T1 sequence (Q9Y5N1 whole entry): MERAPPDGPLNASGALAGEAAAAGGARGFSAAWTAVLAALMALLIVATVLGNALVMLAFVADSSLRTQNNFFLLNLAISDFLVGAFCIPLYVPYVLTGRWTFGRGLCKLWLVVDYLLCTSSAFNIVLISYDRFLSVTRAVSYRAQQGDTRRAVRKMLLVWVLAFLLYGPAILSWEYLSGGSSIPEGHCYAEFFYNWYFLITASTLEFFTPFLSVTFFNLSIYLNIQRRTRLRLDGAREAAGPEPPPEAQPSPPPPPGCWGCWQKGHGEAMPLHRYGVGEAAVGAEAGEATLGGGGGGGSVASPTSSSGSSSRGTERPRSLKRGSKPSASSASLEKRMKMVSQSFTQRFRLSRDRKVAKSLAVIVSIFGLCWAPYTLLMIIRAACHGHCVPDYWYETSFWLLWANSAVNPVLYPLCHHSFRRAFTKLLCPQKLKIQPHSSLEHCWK

One may read the Ki as a measure of affinity in units of concentration, obtained from inhibition or displacement. As for `CNCCC(c1ccccc1)c1ccc(OCCN2CCCC2)cc1` (centres undefined), the Ki is 4.3 nM at Transporter, above 70 nM in [1], 5.2 nM at Histamine H3 receptor [2] and 1.4 nM on Histamine H3 receptor [3].
Usually Kb stands for the equilibrium dissociation constant of an antagonist, usually derived from a functional assay. Turning to `CNCCC(Oc1cccc2cc(OCCN3CCCC3)ccc12)c1ccccc1` (centres undefined), the antagonist equilibrium constant (Kb) at Histamine H3 receptor [4] amounted to 67 nM. For the same compound, the Ki came to 230 nM at Transporter and 48 nM on Histamine H3 receptor [2].
In series [1], `CNCCC(c1ccccc1)c1cccc2ccccc12` (centres undefined) returned a Ki of 2.4 nM.
Turning to `CNCCN(c1ccccc1)c1ccc(OCCN2CCCC2)cc1`, the antagonist dissociation constant (Kb) on Histamine H3 receptor [4] is 2.4 nM. Besides, the inhibitory constant (Ki) at Transporter is 89 nM; in series [1], above 70 nM; on Histamine H3 receptor [2], 5.4 nM; on Histamine H3 receptor [3] it was 1.6 nM.
Turning to `CNCCCC(c1ccccc1)c1ccc(OCCN2CCCC2)cc1` (centres undefined), the antagonist dissociation constant (Kb) at Histamine H3 receptor [4] was found to be 2.1 nM. Also, the Ki at Transporter is 14 nM; in series [1] it was above 70 nM; at Histamine H3 receptor [2] it was 2.9 nM; at Histamine H3 receptor [3], 0.89 nM.
By Cmax is commonly meant the peak of the concentration-time curve. A word on the Vd: it is the apparent volume that relates the amount in the body to the concentration in plasma or blood. Low readings indicate confinement near the circulation, high ones extensive tissue distribution. As a reminder, the Tmax is the time from dosing to the highest level. The term half-life denotes how long it takes for the measured level to halve. The low end stands for fast loss, the high end for slow loss. One may read the clearance as a measure of how efficiently the substance is removed, as volume per time. Read a high clearance as efficient removal. As a reminder, the bioavailability is the share of a dose that reaches the circulation, judged against a reference dose that is usually intravenous. The low end stands for little systemic uptake, the high end for much systemic uptake. For the compound `CNCCC(c1ccccc1)c1ccc(O)c2ccc(OCCN3CCCC3)cc12` (centres undefined), the antagonist equilibrium constant (Kb) at Histamine H3 receptor [4] was determined as 8.3 nM. Further, the fraction unbound in [5] and in series [9] was 0.33 throughout. This compound showed a peak concentration (Cmax) in series [6] of 210 ng/mL. Besides, the volume of distribution (Vd) in [7] worked out at 8.2 L/kg. Further, the time of peak concentration (Tmax) in series [8] was determined as 0.25 h. Also, the results for the concentration at 0.75 h in series [10], in [13] and in [15] were 129 ng/mL, 382 ng/mL and 1240 ng/mL, respectively. Moreover, the half-life in series [11] is 12 h. Also, the Activity in the series on Rattus norvegicus [12] amounted to 70%; with Rattus norvegicus [14], 88%; with Rattus norvegicus [17], 89%; with Rattus norvegicus [21], 97%; in the series with Rattus norvegicus [22], 93%; with Rattus norvegicus [23], 96%. Moreover, the Activity with Rattus norvegicus [24] is recorded as 99%; in the series on Rattus norvegicus [25], 74%. This compound had a clearance in series [16] of 7.67 mL/min/kg. Further, the bioavailability in [18] was 43%. The inhibition constant Ki on Transporter came out at 14 nM; in series [1] it was 7 nM; at Histamine H3 receptor [2] it was 37 nM; at Histamine H3 receptor [3] it was 7.4 nM. Besides, the ED50 amounted to 0.15 µg/mL (≈ 0.371 µM) in the series with Rattus norvegicus [19] and 1.2 mg/kg in the series with Rattus norvegicus [20].
Consider `CNCCCN(c1ccccc1)c1ccc(OCCN2CCCC2)cc1`, for which, at Histamine H3 receptor [4], the Kb amounted to 0.79 nM. The Ki is 110 nM on Transporter, above 70 nM in series [1], 0.72 nM at Histamine H3 receptor [2] and 0.28 nM at Histamine H3 receptor [3].
